# In patent publication US7812008B2, “9-substituted tetracyclines” (Wyeth LLC, priority 2005, dated 2010):
# Where two headings read alike, the source gives them in different places.
# Key:
# [1] = test system: E. coli GC2270 (tet(M)); experiment: MIC broth microdilution, E. coli GC2270 (tet(M)); format: cell-based; conditions: MHBII, 18-22 hours at 35° C.
# Procedure: (§1) Methods for in Vitro Antibacterial Evaluation
# (§2) The minimum inhibitory concentration (MIC)
# (§3) Antimicrobial susceptibility testing. The in vitro activities of representative examples of antibiotics of the invention are determined by the broth microdilution method as recommended by the National Committee for Clinical Laboratory Standards (NCCLS) (1). Mueller-Hinton II broth (MHBII)(BBL Cockeysville, Md.) is the medium employed in the testing procedures. Microtiter plates containing serial dilutions of each antimicrobial agent are inoculated with each organism to yield the appropriate density (10^5 CFU/ml) in a 100 μl final volume. The plates are incubated for 18-22 hours at 35° C. in ambient air. […] NCCLS. 2000. Methods for Dilution Antimicrobial Susceptibility Tests for Bacteria That Grow Aerobically; Approved Standards: M7-A5, vol. 20. National Committe for Clinical Laboratory Standards, Wayne, Pa.
# [2] = test system: E. coli GC4559 (parent GC4560); experiment: MIC broth microdilution, E. coli GC4559 (parent GC4560); format: cell-based; conditions: MHBII, 18-22 hours at 35° C.
# Procedure: as §1, §2, §3
# [3] = test system: E. coli GC4560 (IMP mutant); experiment: MIC broth microdilution, E. coli GC4560 (IMP mutant); format: cell-based; conditions: MHBII, 18-22 hours at 35° C.
# Procedure: as §1, §2, §3
# [4] = test system: E. coli GC2203 (ATCC Control); experiment: MIC broth microdilution, E. coli GC2203 (ATCC Control); format: cell-based; conditions: MHBII, 18-22 hours at 35° C.
# Procedure: as §1, §2, §3
# [5] = test system: E. coli GC1073 (tet(B)); experiment: MIC broth microdilution, E. coli GC1073 (tet(B)); format: cell-based; conditions: MHBII, 18-22 hours at 35° C.
# Procedure: as §1, §2, §3
# [6] = test system: S. aureus GC1131 (Clinical); experiment: MIC broth microdilution, S. aureus GC1131 (Clinical); format: cell-based; conditions: MHBII, 18-22 hours at 35° C.
# Procedure: as §1, §2, §3
# [7] = test system: S. aureus GC6466 (tet(M)); experiment: MIC broth microdilution, S. aureus GC6466 (tet(M)); format: cell-based; conditions: MHBII, 18-22 hours at 35° C.
# Procedure: as §1, §2, §3
# [8] = test system: S. aureus GC6467 (tet(M) + (K)); experiment: MIC broth microdilution, S. aureus GC6467 (tet(M) + (K)); format: cell-based; conditions: MHBII, 18-22 hours at 35° C.
# Procedure: as §1, §2, §3
# [9] = test system: S. aureus GC1079 (tet(K)); experiment: MIC broth microdilution, S. aureus GC1079 (tet(K)); format: cell-based; conditions: MHBII, 18-22 hours at 35° C.
# Procedure: as §1, §2, §3
# [10] = test system: S. aureus GC4536 (Smith MP -In Vivo); experiment: MIC broth microdilution, S. aureus GC4536 (Smith MP -In Vivo); format: cell-based; conditions: MHBII, 18-22 hours at 35° C.
# Procedure: as §1, §2, §3
# [11] = test system: S. aureus GC2216 (ATCC Control); experiment: MIC broth microdilution, S. aureus GC2216 (ATCC Control); format: cell-based; conditions: MHBII, 18-22 hours at 35° C.
# Procedure: as §1, §2, §3
# [12] = test system: E. faecalis GC4555 (ATCC Control); experiment: MIC broth microdilution, E. faecalis GC4555 (ATCC Control); format: cell-based; conditions: MHBII, 18-22 hours at 35° C.
# Procedure: as §1, §2, §3
# [13] = test system: E. faecalis GC2267 (tet(L) + (M) + (S)); experiment: MIC broth microdilution, E. faecalis GC2267 (tet(L) + (M) + (S)); format: cell-based; conditions: MHBII, 18-22 hours at 35° C.
# Procedure: as §1, §2, §3
# [14] = test system: E. faecalis GC2242 (Van-resistant); experiment: MIC broth microdilution, E. faecalis GC2242 (Van-resistant); format: cell-based; conditions: MHBII, 18-22 hours at 35° C.
# Procedure: as §1, §2, §3
# [15] = test system: S. pneumoniae* GC4465 (Clinical); experiment: MIC broth microdilution, S. pneumoniae GC4465 (Clinical); format: cell-based; conditions: 18-22 hours at 35° C.
# Procedure: as §1, §2, §3
# [16] = test system: S. pneumoniae* GC1894 (Clinical); experiment: MIC broth microdilution, S. pneumoniae GC1894 (Clinical); format: cell-based; conditions: 18-22 hours at 35° C.
# Procedure: as §1, §2, §3
# [17] = test system: S. pyogenes* GC4563 (Clinical); experiment: MIC broth microdilution, S. pyogenes GC4563 (Clinical); format: cell-based; conditions: 18-22 hours at 35° C.
# Procedure: as §1, §2, §3
# [18] = test system: M. catarrhalis* GC6907 (Clinical); experiment: MIC broth microdilution, M. catarrhalis GC6907 (Clinical); format: cell-based; conditions: 18-22 hours at 35° C.
# Procedure: as §1, §2, §3
# [19] = test system: H. influenzae<> GC6896 (ATCC Control); experiment: MIC broth microdilution, H. influenzae GC6896 (ATCC Control); format: cell-based; conditions: 18-22 hours at 35° C.
# Procedure: as §1, §2, §3
# [20] = test system: C. albicans GC3066 ATCC (Control); experiment: MIC broth microdilution, C. albicans GC3066 ATCC (Control); format: cell-based; conditions: 18-22 hours at 35° C.
# Procedure: as §1, §2, §3
# [21] = test system: Staphylococcal aureus Smith M P; experiment: In vivo antibacterial evaluation, acute lethal infection in mice; conditions: single oral dose 30 minutes after intraperitoneal challenge, female CD-1 mice, 7 day survival ratios, 3 tests pooled
# Procedure: In Vivo Antibacterial Evaluation: The therapeutic effects of representative examples of the invention are determined against acute lethal infection with Staphylococcal aureus Smith M P, Female mice, strain CD-1 (Charles River Laboratoties), ca. 20 grams, are challenged by an intraperitoneal injection of sufficient bacteria (suspended in broth or hog mucin) to kill non-treated controls within 24-28 hours. Antibacterial agents, contained in 0.5 ml of 0.2% aqueous agar, are administered subcutaneously or orally 30 minutes after injection. When an oral dosing schedule is used, animal are deprived of food for 5 hours before and 2 hours after injection. Five mice are treated at each dose level. The 7 day survival ratios from 3 separate tests are pooled for calculation of median effective dose (ED50).
# [22] = test system: Staphylococcal aureus Smith M P; experiment: MIC reported in Table 2 beside the in vivo ED50; format: cell-based; conditions: Staphylococcus aureus, infecting strain S. aureus Smith MP
# Procedure: Antimicrobial susceptibility testing. The in vitro activities of representative examples of antibiotics of the invention are determined by the broth microdilution method as recommended by the National Committee for Clinical Laboratory Standards (NCCLS) (1). Mueller-Hinton II broth (MHBII)(BBL Cockeysville, Md.) is the medium employed in the testing procedures. Microtiter plates containing serial dilutions of each antimicrobial agent are inoculated with each organism to yield the appropriate density (10^5 CFU/ml) in a 100 μl final volume. The plates are incubated for 18-22 hours at 35° C. in ambient air. […] NCCLS. 2000. Methods for Dilution Antimicrobial Susceptibility Tests for Bacteria That Grow Aerobically; Approved Standards: M7-A5, vol. 20. National Committe for Clinical Laboratory Standards, Wayne, Pa. In Vivo Antibacterial Evaluation: The therapeutic effects of representative examples of the invention are determined against acute lethal infection with Staphylococcal aureus Smith M P, Female mice, strain CD-1 (Charles River Laboratoties), ca. 20 grams, are challenged by an intraperitoneal injection of sufficient bacteria (suspended in broth or hog mucin) to kill non-treated controls within 24-28 hours. Antibacterial agents, contained in 0.5 ml of 0.2% aqueous agar, are administered subcutaneously or orally 30 minutes after injection. When an oral dosing schedule is used, animal are deprived of food for 5 hours before and 2 hours after injection. Five mice are treated at each dose level. The 7 day survival ratios from 3 separate tests are pooled for calculation of median effective dose (ED50).
# [23] = test system: Staphylococcal aureus Smith M P; experiment: In vivo antibacterial evaluation, acute lethal infection in mice; conditions: single intraveneous dose, female CD-1 mice, 7 day survival ratios, 3 tests pooled
compound,measurement,setting,value
"CN(C)c1cc(NC(=O)CN2CCCCO2)c(O)c2c1C[C@H]1C[C@H]3[C@H](N(C)C)C(O)=C(C(N)=O)C(=O)[C@@]3(O)C(O)=C1C2=O [Example 8, (4S,4aS,5aR,12aS)-4,7-bis(dimethylamino)-3,10,12,12a-tetrahydroxy-9-[(1,2-oxazinan-2-ylacetyl)amino]-1,11-dioxo-1,4,4a,5,5a,6,11,12a-octahydrotetracene-2-carboxamide]",minimum inhibitory concentration (MIC),[1],>64
same,minimum inhibitory concentration (MIC),[2],>64
same,minimum inhibitory concentration (MIC),[3],2
same,minimum inhibitory concentration (MIC),[4],>64
same,minimum inhibitory concentration (MIC),[5],>64
same,minimum inhibitory concentration (MIC),[6],4
same,minimum inhibitory concentration (MIC),[7],2
same,minimum inhibitory concentration (MIC),[8],64
same,minimum inhibitory concentration (MIC),[9],16
same,minimum inhibitory concentration (MIC),[10],2
same,minimum inhibitory concentration (MIC),[11],2
same,minimum inhibitory concentration (MIC),[12],2
same,minimum inhibitory concentration (MIC),[13],8
same,minimum inhibitory concentration (MIC),[14],2
same,minimum inhibitory concentration (MIC),[15],1
same,minimum inhibitory concentration (MIC),[16],0.50
same,minimum inhibitory concentration (MIC),[17],1
same,minimum inhibitory concentration (MIC),[18],1
same,minimum inhibitory concentration (MIC),[19],64
same,minimum inhibitory concentration (MIC),[20],>64
same,ED50,"[21]; Mus musculus, read-out: SOD* ED50",3.59 mg/kg
same,MIC,[22],2 µg/mL
same,ED50,"[23]; Mus musculus, iv, 168 h, read-out: SIV* ED50",0.56 mg/kg
"CN(C)c1cc(NC(=O)CNC(C)(C)C)c(O)c2c1C[C@H]1C[C@H]3[C@H](N(C)C)C(O)=C(C(N)=O)C(=O)[C@@]3(O)C(O)=C1C2=O [GAR-936, reference compound]",SOD* ED50,[21],36 mg/kg
same,SIV* ED50,[23],0.46 mg/kg
"CN(C)[C@@H]1C(O)=C(C(N)=O)C(=O)[C@@]2(O)C(O)=C3C(=O)c4c(O)c(NC(=O)CN5CCCCO5)cc(I)c4C[C@H]3C[C@@H]12 [Example 9, (4S,4aS,5aR,12aS)-4-(dimethylamino)-3,10,12,12a-tetrahydroxy-7-iodo-9[(1,2-oxazinan-2-ylacetyl)amino]-1,11-dioxo-1,4,4a,5,5a,6,11,12a-octahydrotetracene-2-carboxamide]",minimum inhibitory concentration (MIC),[1],>64
same,minimum inhibitory concentration (MIC),[2],>64
same,minimum inhibitory concentration (MIC),[3],2
same,minimum inhibitory concentration (MIC),[4],>64
same,minimum inhibitory concentration (MIC),[5],>64
same,minimum inhibitory concentration (MIC),[6],2
same,minimum inhibitory concentration (MIC),[7],1
same,minimum inhibitory concentration (MIC),[8],4
same,minimum inhibitory concentration (MIC),[9],2
same,minimum inhibitory concentration (MIC),[10],4
same,minimum inhibitory concentration (MIC),[11],1
same,minimum inhibitory concentration (MIC),[12],4
same,minimum inhibitory concentration (MIC),[13],2
same,minimum inhibitory concentration (MIC),[14],8
same,minimum inhibitory concentration (MIC),[15],1
same,minimum inhibitory concentration (MIC),[16],0.50
same,minimum inhibitory concentration (MIC),[17],1
same,minimum inhibitory concentration (MIC),[18],2
same,minimum inhibitory concentration (MIC),[19],>64
same,minimum inhibitory concentration (MIC),[20],>64
